Results as given in patent US20250179028A1, “ACRYLAMIDE COMPOUNDS” (NRG THERAPEUTICS LTD, priority 2022, published 2025).

Key:
mPTP = mPTP activity (Ca2+ retention) assay in isolated rat liver mitochondria; type: biochemical; conditions: isolated rat liver mitochondria; average value from multiple experiments (n ≥ 2)
Description: Pharmacological inhibition or modulation of the mPTP can be measured in well characterised ‘Ca^2+ retention’ assays performed in isolated mitochondria. In vitro isolated mitochondria rapidly sequester exogenous Ca^2+ until the intramitochondrial Ca^2+ concentration reaches the threshold for mPTP activation. Once the pore is activated, mitochondrial integrity is compromised and the stored Ca^2+ is released. The distribution of Ca^2+ between extra- and intra-mitochondrial compartments can be measured in real time with the use of membrane-impermeant Ca^2+ sensitive fluorescent dyes. Depending on the configuration of the assay, inhibition or modulation of the mPTP either delays the opening of the pore or increases the concentration of Ca^2+ required to induce mPTP opening.
MPTP activity was measured in mitochondria freshly isolated from female Sprague Dawley (250 to 300 gram) rat livers using the following method. Cervical dislocation was performed on the rat. The liver was then perfused in-situ with ˜40 ml cold Dulbecco's Phosphate Buffered Saline (DPBS) prior to dissection and transferred into 30 ml Isolation Buffer (250 mM Sucrose, 10 mM KCl, 1 mM EGTA, 1 mM EDTA, 25 mM HEPES, adjusted to pH 7.5 with 1 M NaOH). Each lobe of the liver was then removed from the buffer, minced using tweezers and a scalpel into ˜5 mm pieces then transferred into a 50 ml Potterton dounce homogenization tube on ice containing 30 ml ice-cold centrifugation buffer (300 mM Trehalose, 25 mM HEPES, 1 mM EGTA, 1 mM EDTA, 10 mM KCl, adjusted to pH 7.5 with 1 M NaOH and supplemented with 0.1% bovine serum albumin (BSA) and complete protease inhibitor cocktail (one tablet of inhibitor per 50 mls of buffer). Homogenisation was carried out using a teflon pestle at 1800 rpm. The slurry was centrifuged at 800 g for 10 min at 4° C., then the supernatant centrifuged at 10,000 g for 10 min. The pellet was washed once with FLIPR assay buffer (75 mM Mannitol, 25 mM Sucrose, 5 mM Potassium Phosphate Monobasic, 20 mM Tris base, 100 mM KCl, 0.1% BSA adjusted to pH 7.4 with 5M HCl) centrifuged again, then resuspended in FLIPR assay buffer to a concentration of 8.8 mg/ml protein.
Tested compounds (10 mM stock in DMSO) were serially diluted in DMSO in half log steps to generate 10 test concentrations (final concentrations in assay 30 μM to 1 nM). An intermediate dilution of 5 μl DMSO samples into 247 μl FLIPR assay buffer was carried out prior to transfer of 5 μl into duplicate wells of a 384 well polypropylene assay plate. Control wells were 0.5% (v/v) DMSO and 5 μM cyclosporin A.
A stock mitochondria/Fluo5N assay solution was prepared in 5.6 ml FLIPR assay buffer (at RT) supplemented with succinate disodium salt (10 mM), rotenone (1 μM), Fluo5N pentapotassium salt (2 μM) and 1 ml mitochondria suspension, then transferred (15 μl) into the assay plate containing test compounds and incubated for 10 min at RT. Assay plates were then transferred to a FLIPR Tetra plate reader (Molecular Devices). Dye fluorescence was then measured every 3 sec for a total of 10 min. After 12 sec, a 2.5 μl bolus of CaCl2 (75 μM) was added from a source plate containing 675 μM CaCl2 in FLIPR assay buffer. IC50 values for tested compounds were calculated using the fluorescence value collected at the 10 min timepoint with % inhibition calculated using the DMSO control and cyclosporin A values as […] respectively.

CYP2D6 = CYP2D6 (Homo sapiens (Human), UniProt P10635); experiment: Cytochrome P450 CYP2D6 inhibition in human liver microsomes; type: in vitro ADME; conditions: probe dextromethorphan 2 µM (dextrorphan formation); 1 uM test compound, human liver microsomes; average value from two experiments; negative values = no effective inhibition
Protocol: Studies to assess tested compound mediated inhibition of cytochrome P450 enzyme isoform CYP2D6 were performed using human liver microsomes (BD Gentest) using either a single concentration (1 μM) of test compound or concentration response (0.1, 0.3, 1, 3, 10 and 30 μM) to derive an IC50. Tested compound solutions were prepared from 10 mM stocks in DMSO and diluted to 200 μM in DMSO. Reactions were prepared in a 96 deep well plate by combining 1 μl test compound with 179 μl reaction mixture (100 mM phosphate buffered saline (PBS), 0.2 mg/mL microsomes and 2 μM Dextromethorphan prepared from stocks as detailed below).
The positive control inhibitor, quinidine, was used at a final concentration of 0.5 μM when used at a single concentration. The final concentrations of quinidine used to derive an IC50 were 0, 0.1, 0.3, 1, 3, 10 and 30 μM. Plates were warmed at 37° C. for 15 min before starting reactions with 20 μl 10 mM NADPH solution in PBS and incubated for 20 min at 37° C. The assay is performed in duplicate. Reactions were quenched with 200 μl cold acetonitrile containing internal standards (200 nM labetalol, 200 nM alprazolam and 100 nM tolbutamide). The plate was centrifuged at 4000 rpm for 30 minutes, placed on ice for 20 minutes and then centrifuged at 4000 rpm for 30 minutes again to precipitate protein. 100 μL of the supernatant was transferred to a new plate and diluted with 100 μL pure water before being analysed using UPLC/MS/MS. The products of the transformation for dextromethorphan to dextrorphan was monitored by UPLC-MS/MS. The inhibition of CYP2D6 in human liver microsomes was measured as the percentage decrease in the activity of dextrorphan formation compared to non-inhibited controls (=100% activity). The IC50 value was calculated (test compound concentration which produces 50% inhibition) by using Excel Xlfit.

Chain of CYP2D6 (P10635 whole entry, canonical isoform): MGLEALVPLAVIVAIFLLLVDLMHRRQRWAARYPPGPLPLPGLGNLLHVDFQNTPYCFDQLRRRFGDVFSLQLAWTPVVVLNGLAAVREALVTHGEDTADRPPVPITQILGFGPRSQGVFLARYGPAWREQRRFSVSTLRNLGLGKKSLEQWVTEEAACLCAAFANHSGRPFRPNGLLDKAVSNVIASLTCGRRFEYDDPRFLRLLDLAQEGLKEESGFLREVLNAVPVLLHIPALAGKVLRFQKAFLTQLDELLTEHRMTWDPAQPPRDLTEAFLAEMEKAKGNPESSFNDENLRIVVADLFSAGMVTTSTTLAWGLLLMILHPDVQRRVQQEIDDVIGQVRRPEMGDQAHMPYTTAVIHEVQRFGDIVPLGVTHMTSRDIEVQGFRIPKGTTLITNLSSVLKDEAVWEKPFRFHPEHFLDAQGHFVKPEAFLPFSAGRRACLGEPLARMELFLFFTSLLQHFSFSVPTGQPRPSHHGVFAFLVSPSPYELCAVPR

Row | SMILES | mPTP Rat liver pIC50 (mPTP) | inhibition at 20 min, 1 µM (CYP2D6) [%]
1 | Cc1c(F)cccc1NC(=O)/C=C/c1ccc2sc(=O)[nH]c2c1 [Example 2, (E)-N-(3-fluoro-2-methylphenyl)-3-(2-oxo-2,3-dihydrobenzo[d]thiazol-5-yl)acrylamide] | 6.0 | –
2 | O=C(/C=C/c1ccc2oc(=O)[nH]c2c1)NC1CCc2ccccc21 (stereo not drawn) [Example 11, (E)-N-(2,3-dihydro-1H-inden-1-yl)-3-(2-oxo-2,3-dihydrobenzo[d]oxazol-5-yl)acrylamide] | 6.1 | -0.63
3 | Cc1ccccc1NC(=O)/C=C/c1ccc2oc(=O)[nH]c2c1 [Example 12, (E)-3-(2-oxo-2,3-dihydrobenzo[d]oxazol-5-yl)-N-(o-tolyl)acrylamide] | 6.5 | 3.05
4 | Cc1cc(F)c(F)cc1NC(=O)/C=C/c1ccc2oc(=O)[nH]c2c1 [Example 16, (E)-N-(4,5-difluoro-2-methylphenyl)-3-(2-oxo-2,3-dihydrobenzo[d]oxazol-5-yl)acrylamide] | 6.8 | 1.72
5 | Cn1c(=O)[nH]c2cc(/C=C/C(=O)NC3CCc4ccccc43)ccc21 (stereo not drawn) [Example 24, (E)-N-(2,3-dihydro-1H-inden-1-yl)-3-(1-methyl-2-oxo-2,3-dihydro-1H-benzo[d]imidazol-5-yl)acrylamide] | 6.1 | 0.77
6 | Cc1cccc(C)c1NC(=O)/C=C/c1ccc2c(C)n[nH]c2c1 [Example 31, (E)-N-(2,6-dimethylphenyl)-3-(3-methyl-1H-indazol-6-yl)acrylamide] | 7.7 | 19.9
7 | CCc1n[nH]c2cc(/C=C/C(=O)NC3CCc4ccccc43)ccc12 (stereo not drawn) [Example 32, (E)-N-(2,3-dihydro-1H-inden-1-yl)-3-(3-ethyl-1H-indazol-6-yl)acrylamide] | 6.6 | 4.01
8 | O=C(/C=C/c1ccc2c(C3CC3)n[nH]c2c1)NC1CCc2ccccc21 (stereo not drawn) [Example 33, (E)-3-(3-cyclopropyl-1H-indazol-6-yl)-N-(2,3-dihydro-1H-inden-1-yl)acrylamide] | 6.3 | -0.55
9 | Cc1n[nH]c2cc(/C=C/C(=O)NC3CCc4ccccc43)cc(F)c12 (stereo not drawn) [Example 34, (E)-N-(2,3-dihydro-1H-inden-1-yl)-3-(4-fluoro-3-methyl-1H-indazol-6-yl)acrylamide] | 6.7 | 4.37
10 | Cc1n[nH]c2cc(/C=C/C(=O)NC3c4ccccc4CC3C)ccc12 (stereo not drawn) [Example 38, (E)-3-(3-methyl-1H-indazol-6-yl)-N-(2-methyl-2,3-dihydro-1H-inden-1-yl)acrylamide] | 7.2 | 7.3
11 | Cc1n[nH]c2cc(/C=C/C(=O)Nc3cccc4cnn(C)c34)ccc12 [Example 39, (E)-3-(3-methyl-1H-indazol-6-yl)-N-(1-methyl-1H-indazol-7-yl)acrylamide] | 7.5 | 3.83
12 | Cc1n[nH]c2cc(/C=C/C(=O)N[C@@H]3CCCC[C@H]3C)ccc12 [Example 43, (E)-3-(3-methyl-1H-indazol-6-yl)-N-((1R,2R)-2-methylcyclohexyl)acrylamide] | 6.3 | –
13 | CC1Cc2ccccc2C1NC(=O)/C=C/c1ccc2c(c1)[nH]c(=O)n2C (stereo not drawn) [Example 45, (E)-N-(2-methyl-2,3-dihydro-1H-inden-1-yl)-3-(1-methyl-2-oxo-2,3-dihydro-1H-benzo[d]imidazol-5-yl)acrylamide] | 6.3 | –
14 | CC1Cc2ccccc2C1NC(=O)/C=C/c1ccc2oc(=O)[nH]c2c1 (stereo not drawn) [Example 46, (E)-N-(2-methyl-2,3-dihydro-1H-inden-1-yl)-3-(2-oxo-2,3-dihydrobenzo[d]oxazol-5-yl)acrylamide] | 6.3 | –
15 | Cc1n[nH]c2cc(/C=C/C(=O)NC3c4ccccc4OCC3C)ccc12 (stereo not drawn) [Example 52, (E)-3-(3-methyl-1H-indazol-6-yl)-N-(3-methylchroman-4-yl)acrylamide] | 6.9 | –
16 | Cc1n[nH]c2cc(/C=C/C(=O)NC3c4ccccc4CCC3C)ccc12 (stereo not drawn) [Example 53, (E)-N-(2-methyl-1,2,3,4-tetrahydronaphthalen-1-yl)-3-(3-methyl-1H-indazol-6-yl)acrylamide] | 6.7 | –
17 | Cc1n[nH]c2cc(/C=C/C(=O)N[C@@H]3CCc4ccccc43)ccc12 [Example 55, (E)-N-(2,3-dihydro-1H-inden-1-yl)-3-(3-methyl-1H-indazol-6-yl)acrylamide] | 7.1 | –
18 | O=C(/C=C/c1ccc2oc(=O)[nH]c2c1)NC1CCOc2ccccc21 (stereo not drawn) [Example 56, (E)-N-(chroman-4-yl)-3-(2-oxo-2,3-dihydrobenzo[d]oxazol-5-yl)acrylamide] | 5.8 | –
19 | O=C(/C=C/c1ccc2oc(=O)[nH]c2c1)NC1CCCc2ccccc21 (stereo not drawn) [Example 57, (E)-3-(2-oxo-2,3-dihydrobenzo[d]oxazol-5-yl)-N-(1,2,3,4-tetrahydronaphthalen-1-yl)acrylamide] | 5.8 | –
20 | CC1CCc2ccccc2C1NC(=O)/C=C/c1ccc2c(c1)NC(=O)C2 (stereo not drawn) [Example 58] | 5.5 | –
21 | O=C(/C=C/c1ccc2c(c1)NC(=O)C2)NC1CCc2ccccc21 (stereo not drawn) [Example 59, (E)-N-(2,3-dihydro-1H-inden-1-yl)-3-(2-oxoindolin-6-yl)acrylamide] | 5.5 | –
22 | Cc1c(F)cc(F)cc1NC(=O)/C=C/c1ccc2c(c1)NC(=O)C2 [Example 60, (E)-N-(3,5-difluoro-2-methylphenyl)-3-(2-oxoindolin-6-yl)acrylamide] | 5.7 | –
23 | O=C(/C=C/c1ccc2nn[nH]c2c1F)NC1CCc2ccccc21 (stereo not drawn) [Example 61, (E)-N-(2,3-dihydro-1H-inden-1-yl)-3-(7-fluoro-1H-benzo[d][1,2,3]triazol-6-yl)acrylamide] | 5.6 | –
24 | O=C(/C=C/c1cc(F)c2nn[nH]c2c1)NC1CCc2ccccc21 (stereo not drawn) [Example 62, (E)-N-(2,3-dihydro-1H-inden-1-yl)-3-(4-fluoro-1H-benzo[d][1,2,3]triazol-6-yl)acrylamide] | 5.6 | –
25 | Cc1ccc(Cl)cc1NC(=O)/C=C/c1ccc2oc(=O)[nH]c2c1 [Example 63, (E)-N-(5-chloro-2-methylphenyl)-3-(2-oxo-2,3-dihydrobenzo[d]oxazol-5-yl)acrylamide] | 4.9 | –
26 | CC1CCCCC1NC(=O)/C=C/c1ccc2c(c1)NC(=O)C2 (stereo not drawn) [Example 64, (E)-N-(2-methylcyclohexyl)-3-(2-oxoindolin-6-yl)acrylamide] | 4.9 | –
